Literature values as cited in EP1815850B1, “Controlled release formulation of divalproic acid and its derivatives” (TEVA PHARMACEUTICAL INDUSTRIES LTD., priority 2006, dated 2007).

Conditions: in adults

CCCC(CCC)C(=O)O [valproic acid, 2-Propylpentanoic acid]
elimination half-life: six and seventeen
